ChEMBL document CHEMBL6121041, “Design and synthesis of isatin derivative payloaded peptide-drug conjugate as tubulin inhibitor against colorectal cancer” (Eur J Med Chem, 2025)
Blank lines part the entries; values can stand above or below the compound they belong to. The source made the active and inactive calls. No cut-off for these calls is given here.

What was measured:
MGC-803 = test: Antiproliferative activity against human MGC-803 cells assessed as reduction in cell viability incubated for 48 hrs by MTT assay; format: functional, cell-based; conditions: MGC-803, 48 h
K562 = test: Antiproliferative activity against human K562 cells assessed as reduction in cell viability incubated for 48 hrs by MTT assay; format: functional, cell-based; conditions: K562, 48 h
786-0 = test: Antiproliferative activity against human 786-0 cells assessed as reduction in cell viability incubated for 48 hrs by MTT assay; format: functional, cell-based; conditions: 786-0, 48 h
HCT-116 [1] = test: Antiproliferative activity against human HCT-116 cells assessed as reduction in cell viability incubated for 48 hrs by MTT assay; format: functional, cell-based; conditions: HCT-116, 48 h
HCC827 = test: Antiproliferative activity against human HCC827 cells assessed as reduction in cell viability incubated for 48 hrs by MTT assay; format: functional, cell-based; conditions: HCC827, 48 h
[2] = Cytotoxicity against HK-2 cells assessed as reduction in cell viability incubated for 48 hrs by MTT assay; format: toxicity, cell-based; conditions: human
HepG2 = test: Antiproliferative activity against human HepG2 cells assessed as reduction in cell viability incubated for 48 hrs by MTT assay; format: functional, cell-based; conditions: HepG2, 48 h
[3] = Cytotoxicity against HUVEC cells assessed as reduction in cell viability incubated for 48 hrs by MTT assay; format: toxicity, cell-based; conditions: human
HCT-116 [4] = test: Induction of apoptosis in human HCT-116 cells assessed as downregulation of Bcl-2 protein at 0.8 uM measured after 24 hrs by Western blot analysis; format: functional, cell-based
HCT-116 [5] = test: Antitumor activity against human HCT-116 cells xenografted in SPF-grade Balb/c nude mouse model assessed as tumor growth inhibition at 12 mg/kg, ip administered daily for 11 days relative to control; format: functional; conditions: HCT-116, 264 h, time 11 day, read-out: TGI
HCT-116 [6] = test: Induction of apoptosis in human HCT-116 cells assessed as increase in PARP cleavage at 0.2 to 0.8 uM incubated for 24 hrs by Western blot analysis; format: functional, cell-based; conditions: dose 0.2-0.8 µM
HCT-116 [7] = test: Induction of apoptosis in human HCT-116 cells assessed as cell fragmentation at 0.4 to 0.8 microM measured after 24 hrs by microscopic analysis; format: functional, cell-based; conditions: dose 0.4-0.8 µM
HCT-116 [8] = test: Induction of apoptosis in human HCT-116 cells assessed as increase in caspase-3 activation level at 0.8 uM measured after 24 hrs by Western blot analysis; format: functional, cell-based
HCT-116 [9] = test: Induction of apoptosis in human HCT-116 cells assessed as upregulation of Bax protein at 0.2 to 0.8 uM measured within 24 hrs by Western blot analysis; format: functional, cell-based; conditions: dose 0.2-0.8 µM
HCT-116 [10] = test: Induction of apoptosis in human HCT-116 cells assessed as downregulation of Bcl-2 protein at 0.2 to 0.8 uM measured within 24 hrs by Western blot analysis; format: functional, cell-based; conditions: dose 0.2-0.8 µM
HCT-116 [11] = test: Cell cycle arrest in human HCT-116 cells assessed as accumulation of cells at G2/M phase by measuring decrease in CDK1 expression at 0.2 to 0.8 uM incubated for 24 hrs by Western blot analysis; format: functional, cell-based; conditions: dose 0.2-0.8 µM
HCT-116 [12] = test: Cell cycle arrest in human HCT-116 cells assessed as increase in p21 expression at 0.2 to 0.8 uM incubated for 24 hrs by Western blot analysis; format: functional, cell-based; conditions: dose 0.2-0.8 µM
HCT-116 [13] = test: Induction of apoptosis in human HCT-116 cells assessed as increase in caspase-3 cleavage level at 0.2 to 0.8 uM incubated for 24 hrs by Western blot analysis; format: functional, cell-based; conditions: dose 0.2-0.8 µM
HCT-116 [14] = test: Cell cycle arrest in human HCT-116 cells assessed as accumulation of cells at G2/M phase by measuring increase in cyclin B1 expression at 0.2 to 0.8 uM incubated for 24 hrs by Western blot analysis; format: functional, cell-based; conditions: dose 0.2-0.8 µM
HCT-116 [15] = test: Induction of apoptosis in human HCT-116 cells assessed as upregulation of Bax protein at 0.8 uM measured after 24 hrs by Western blot analysis; format: functional, cell-based
HCT-116 [16] = test: Cell cycle arrest in human HCT-116 cells assessed as increase in p53 expression at 0.2 to 0.8 uM incubated for 24 hrs by Western blot analysis; format: functional, cell-based; conditions: dose 0.2-0.8 µM
HCT-116 [17] = test: Induction of apoptosis in human HCT-116 cells assessed as morphological changes at 0.4 to 0.8 microM measured after 48 hrs by microscopic analysis; format: functional, cell-based; conditions: dose 0.4-0.8 µM
HCT-116 [18] = test: Inhibition of beta-tubulin expression in human HCT-116 cells at 0.8 uM incubated for 24 hrs by Western blot analysis; format: functional, cell-based
HCT-116 [19] = test: Cell cycle arrest in human HCT-116 cells assessed as accumulation of cells at G2/M phase at 0.4 to 0.8 uM incubated for 24 hrs by PI staining based flow cytometric analysis; format: functional; conditions: dose 0.4-0.8 µM
[20] = Toxicity in SPF-grade Balb/c nude mouse xenografted with human HCT-116 cells assessed as average body weight at 12 mg/kg, ip measured after 10 days; format: organism-based; conditions: in vivo, 240 h, time 10 day
HCT-116 [21] = test: Inhibition of colony formation in human HCT-116 cells at 0.4 to 0.8 uM measured after 10 days by crystal violet staining based inverted microscopic analysis; format: functional, cell-based; conditions: dose 0.4-0.8 µM, time 10.0 day
HCT-116 [22] = test: Induction of apoptosis in human HCT-116 cells assessed as increase in PARP activation level at 0.8 uM measured after 24 hrs by Western blot analysis; format: functional, cell-based
HCT-116 [23] = test: Antitumor activity against human HCT-116 cells xenografted in SPF-grade Balb/c nude mouse model assessed as tumor growth inhibition at 45.17 mg/kg, ip administered daily for 11 days relative to control; format: functional; conditions: HCT-116, 264 h, time 11 day, read-out: TGI
HCT-116 [24] = test: Cell cycle arrest in human HCT-116 cells assessed as increase in p53 expression at 0.8 uM incubated for 24 hrs by Western blot analysis; format: functional, cell-based
HCT-116 [25] = test: Inhibition of wound closure in human HCT-116 cells at 0.4 uM measured after 48 hrs by wound healing assay; format: functional, cell-based
HCT-116 [26] = test: Cell cycle arrest in human HCT-116 cells assessed as increase in cyclin B1 expression at 0.8 uM incubated for 24 hrs by Western blot analysis; format: functional, cell-based
HCT-116 [27] = test: Cell cycle arrest in human HCT-116 cells assessed as decrease in CDK1 expression at 0.8 uM incubated for 24 hrs by Western blot analysis; format: functional, cell-based
HCT-116 [28] = test: Cell cycle arrest in human HCT-116 cells assessed as increase in p21 expression at 0.8 uM incubated for 24 hrs by Western blot analysis; format: functional, cell-based
HCT-116 [29] = test: Inhibition of beta-tubulin expression in human HCT-116 cells at 0.2 to 0.8 uM incubated for 24 hrs by Western blot analysis; format: functional, cell-based; conditions: dose 0.2-0.8 µM
HCT-116 [30] = test: Antitumor activity against human HCT-116 cells xenografted in SPF-grade Balb/c nude mouse model assessed as reduction in tumor size at 12 mg/kg, ip administered daily for 11 days by photographic analysis; format: functional, organism-based; conditions: time 11.0 day
HCT-116 [31] = test: Induction of apoptosis in human HCT-116 cells at 0.4 to 0.8 uM incubated for 24 hrs by Annexin V-FITC/PI staining based flow cytometric analysis; format: functional, cell-based; conditions: dose 0.4-0.8 µM
HCT-116 [32] = test: Antitumor activity against human HCT-116 cells xenografted in SPF-grade Balb/c nude mouse model assessed as inhibition of tumor cell growth at 12 mg/kg, ip administered daily for 11 days by H and E staining based analysis; format: functional, organism-based; conditions: time 11.0 day
HCT-116 [33] = test: Induction of apoptosis in human HCT-116 cells assessed as morphological changes at 0.4 to 0.8 microM measured after 24 hrs by microscopic analysis; format: functional, cell-based; conditions: dose 0.4-0.8 µM

SMILES: COC(=O)c1ccc(-c2ccc3c(c2)C(=O)C(=O)N3Cc2ccc(OC)cc2)cc1
IC50 (MGC-803): 86.2 µM | IC50 (K562): 2.07 µM | IC50 (786-0): 138 µM | IC50 (HCT-116 [1]): 1.6 µM | IC50 (HCC827): 12 µM | IC50 at 48 h [2]: 8.54 µM | IC50 (HepG2): > 100 µM | IC50 at 48 h [3]: 81.7 µM

SMILES: COc1ccc(CN2C(=O)C(=O)c3cc(-c4ccc(OC)cc4)cc([N+](=O)[O-])c32)cc1
IC50 (MGC-803): 58.2 µM | IC50 (K562): 0.47 µM | IC50 (786-0): 15.2 µM | IC50 (HCT-116 [1]): 0.263 µM | IC50 (HCC827): 3.62 µM | IC50 at 48 h [2]: 1.21 µM | IC50 (HepG2): > 100 µM | IC50 at 48 h [3]: 10.6 µM

SMILES: CCN(CC)CCNC(=O)c1c(C)[nH]c(/C=C2\C(=O)Nc3ccc(F)cc32)c1C [SUNITINIB]
IC50 (MGC-803): 8.25 µM | IC50 (K562): 1.25 µM | IC50 (786-0): 9.02 µM | IC50 (HCT-116 [1]): 2.23 µM | IC50 (HCC827): 1.34 µM | IC50 at 48 h [2]: 6.88 µM | IC50 (HepG2): 4.7 µM | IC50 at 48 h [3]: 7.7 µM

SMILES: COc1ccc(CN2C(=O)C(=O)c3cc(-c4ccc(OC)cc4)ccc32)cc1
IC50 (MGC-803): 19 µM | IC50 (K562): 0.31 µM | IC50 (786-0): 51.4 µM | IC50 (HCT-116 [1]): 0.768 µM | IC50 (HCC827): 10.1 µM | IC50 at 48 h [2]: 10.5 µM | IC50 (HepG2): 43 µM | IC50 at 48 h [3]: 27.2 µM

The next lines start with results.

IC50 (MGC-803): 27 µM | IC50 (K562): 0.77 µM | IC50 (786-0): 33.3 µM | IC50 (HCT-116 [1]): 0.349 µM | IC50 (HCC827): 24.2 µM | IC50 (HepG2): > 100 µM
SMILES: COc1ccc(CN2C(=O)C(=O)c3cc(-c4ccc(CBr)cc4)ccc32)cc1
IC50 at 48 h [2]: 1.99 µM | IC50 at 48 h [3]: 16 µM

IC50 (MGC-803): 20.6 µM | IC50 (K562): 0.8 µM | IC50 (786-0): 26.6 µM | IC50 (HCT-116 [1]): 0.33 µM | IC50 (HCC827): 10.1 µM | IC50 (HepG2): > 100 µM
SMILES: COc1ccc(CN2C(=O)C(=O)c3cc(-c4ccc(O)cc4)ccc32)cc1
Activity (HCT-116 [4]): Active | inhibition in vivo at 12 mg/kg (HCT-116 [5]): 49% | Activity (HCT-116 [6]): Active | Activity (HCT-116 [7]): Active | Activity (HCT-116 [8]): Active | Activity (HCT-116 [9]): Active; Activation Of Intrinsic Apoptotic Pathway Observed | Activity (HCT-116 [10]): Active; Activation Of Intrinsic Apoptotic Pathway Observed | Activity (HCT-116 [11]): Active | Activity (HCT-116 [12]): Active; Activation Of P53-Medisted Signaling Observed | Activity (HCT-116 [13]): Active | Activity (HCT-116 [14]): Active | Activity (HCT-116 [15]): Active | Activity (HCT-116 [16]): Active; Activation Of P53-Medisted Signaling Observed | Activity (HCT-116 [17]): Active; More Evident Apoptotic State Observed | inhibition (HCT-116 [18]): Active | Activity (HCT-116 [19]): Active | Activity [20]: ~ 10 g | inhibition (HCT-116 [21]): Active | Activity (HCT-116 [22]): Active | inhibition in vivo at 45.17 mg/kg (HCT-116 [23]): 61% | Activity (HCT-116 [24]): Active | inhibition (HCT-116 [25]): Active | Activity (HCT-116 [26]): Active | Activity (HCT-116 [27]): Active | IC50 at 48 h [2]: 13.9 µM | Activity (HCT-116 [28]): Active | inhibition (HCT-116 [29]): Active | Activity (HCT-116 [30]): Active | Activity (HCT-116 [31]): Active | Activity (HCT-116 [32]): Active | Activity (HCT-116 [33]): Active | IC50 at 48 h [3]: 18.1 µM

IC50 (MGC-803): > 100 µM | IC50 (K562): 1.14 µM | IC50 (786-0): 50.5 µM | IC50 (HCT-116 [1]): 2.02 µM | IC50 (HCC827): 29.3 µM | IC50 (HepG2): 6.78 µM
SMILES: COc1ccc(CN2C(=O)C(=O)c3cc(-c4ccc(COC(C)=O)cc4)ccc32)cc1
IC50 at 48 h [2]: 9.02 µM | IC50 at 48 h [3]: 34.7 µM
